How the values were obtained:
in vivo = conditions: male, Swiss Albino, mouse, po, 10 mg/kg
[1] = male, Swiss Albino, mouse, in vivo, 10 mg/kg

For `CC(C)(C)n1nc(Oc2cccc(Cl)c2)c2c(N)ncnc21` [Compound 2], the bioavailability (in vivo) was 25 to 30% and the “%F (oral availability)” value [1] was 31%.

Reference: paper PMC5746462 (Journal of medicinal chemistry, 2017)
